Measured values taken from patent US20200291082A1, “PREVENTION AND TREATMENT OF GRAFT-VERSUS-HOST-DISEASE WITH DEFENSINS” (priority 2017, published 2020).
“Also recorded” adds a separate entry of the source. No end group written: not given here.

How the values were obtained:
[1] = system: gut microbiota in high fat diet murine model; test: prophylactic treatment with defensins in murine high fat diet model, gut microbiota (Example 7); format: in vivo, mice
Excerpt: Protection and preservation of gut microbiota by prophylactic treatment with defensins. Mice: Mice were housed in trios, 4 cages per group. Feed intake was registered daily just before lights were turned off at 6 pm. Individual mice were subjected to experimental procedures in altered order both group and cage wise. Mice were kept at room temperature under a 12-hour light/dark cycle at SPF standard conditions. Diets: For dosing, the average weight was estimated to be 25 grams per mouse. Mice eat approximately 3 grams of feed per mouse per day. Treatment regime: Mice were fed either a high fat diet (HFD) or a low fat (LF) control diet. The HFD contained 4 subgroups; 1 hBD2, 1 HD5, 1 hBD2/HD5 and 1 standard HFD without supplementation of defensins (FIG. 3). Defensin concentration was 1,2 mg hBD2 per kg mouse per day. HD5 was given in equimolar concentration to hBD2. […] Microbial analyses were carried out to study the microbiota of the intestine. Longitudinal 16S characterization was conducted on 4 paired samples from 60 mice, 240 samples in total. Each mouse was sampled prior to diet change, 1 week post diet change, 4 weeks post diet change and at termination, thus ensuring a thorough characterization of the faecal microbiota as a result of defensin treatment.

[2] = system: house dust mite model of allergic asthma; test: therapeutic intranasal versus oral hBD2 in murine house dust mite model of allergic asthma (Example 10); format: in vivo, BALB/c mice; settings: hBD2, both dosing routes
[3] = system: house dust mite driven model of allergic asthma; test: prophylactic intranasal versus oral hBD2 in murine house dust mite driven model of allergic asthma (Example 9); format: in vivo, BALB/c mice
Method: To determine and assess the efficacy of prophylactic treatment with intranasal (IN) versus oral defensins in a murine house dust mite driven model of allergic asthma.
Treatment regime: Female 7-10 weeks old BALB/c mice were randomly allocated into 5 study groups one day prior to study start and subcutaneously (SC) sensitized to house dust mite (100 μg HDM in 200 μL saline plus Freund's complete adjuvant in 0.9% saline). The mice were treated with hBD2 orally and intranasally respectively at a dose of 1.2 mg/kg/day (0.4 mg/kg TID) starting on day 12 in the morning and continued TID at approximately 6 hours intervals. The last dose was administered on day 14 one hour prior to challenge. The total number of doses were […] hBD2. Mice were then intranasally (IN) challenged with HDM on day 14 (HDM 25 μg in 50 μL of saline) (FIG. 4).
Airway inflammation: At 48 hours post challenge, bronchoalveolar lavage was performed washing the lungs with 3 volumes of cold PBS (0.4; 0.3 and 0.3 mL, total 1 mL). Total and differential leucocyte cell counts were determined on an automated haematological analyser Sysmex XT-2000iV.
Lung function: Starting 48 hours after HDM challenge, measurements of lung resistance and lung compliance were carried out after methacholine challenge (3.125 MCH1; 6.25 MCH2; 12.5 MCH3 and 25 mg/mL MCH4) by anaesthetized, cannulated mice using DSI's Buxco Finepoint RC system. Data are represented as airway resistance at […] methacholine and as dose responsive curves.
Lung sampling for cytokine analysis: After completion of every BAL, lungs were removed from the thorax, snap frozen in liquid nitrogen and stored frozen at −80 degrees Celsius until analysis of cytokine concentration of TNF-α, IL-4, IL-5, IL-6, IL-9, IL-13 and IL-33 in lung homogenate by ELISA.

[4] = system: microbiota in diet-induced obese mice; test: interventional treatment of dysbiosis with defensins in diet-induced obese mice (Example 8); format: in vivo
Excerpt: Mice and diets. The experiment elucidates the effect of hBD2 and HD5 on the microbiota in diet-induced obese mice. A run-in period of 13 weeks where mice were fed a very HFD (60% energy from fat) preceded the intervention. Only mice meeting the criteria of a minimum of 12 gram weight gain (approximately 50% of initial bodyweight) during the run-in period were included in the final analyses. […] They were exposed to all experimental tests, but excluded from the analyses.
Treatment regimen. Before the intervention all mice were MR scanned. Cages of mice were allocated to experimental groups based on their fat mass. All subsequent measures were paired with data from the same mouse before the intervention. A LFD (low fat diet) reference group was running in parallel. As controls for the intervention 2 additional groups were included: 1 very HFD and 1 LFD. Experimental mice stayed on the very HFD during the intervention (FIG. 3). The mice were on the experimental diet for 10 weeks. They were co-housed throughout the experiment, 4 mice per cage, 3 cages per group. All tests ran over 3 days, 1 cage per group per day.
Tests. Microbial analyses were carried out to study the microbiota of the intestine.
Longitudinal 16S characterization was conducted on 4 paired samples from 60 mice, 240 samples in total. Each mouse was sampled prior to diet change, 1 week post diet change, 4 weeks post diet change and at termination, thus ensuring a thorough characterization of the faecal microbiota as a result of defensin treatment.

[5] = system: Trinitrobenzene Sulfonic Acid induced colitis; test: prophylactic murine 8-day Trinitrobenzene Sulfonic Acid induced colitis model (Example 3); format: in vivo, BALB/cByJ mice
Method: Anti-inflammatory effect of s.c. administration of hBD2 versus s.c. prednisolone in a prophylactic murine, 8-day Trinitrobenzene Sulfonic Acid induced colitis model.
105 male BALB/cByJ mice housed in groups of five per cage were allocated to 7 different treatment groups. Colitis was induced by intracolonic administration of trinitrobenzene sulfonic acid on day 0 under light anaesthesia resulting in significant inflammation and injury of the colonic tissue. The animals were treated with hBD2 at four different dosing levels once daily (1 mg/kg, 0.3 mg/kg, 0.1 mg/kg, and 0.03 mg/kg) or Prednisolone 10 mg/kg once daily dosed subcutaneously under the dorsal skin or PBS as vehicle for 7 days.
A disease activity index (DAI) scoring system was applied for clinical assessment (FIG. 7). The animals were sacrificed on day 10 and colon removed for histological assessment employing a histological scoring system (FIG. 8).

[6] = colon, prophylactic treatment with hBD2
[7] = hBD2 both oral and intranasal TID, day 12 to day 14 (total 2.0 mg/kg in 8 administrations), versus HDM challenged vehicle
[8] = intranasally administered, not statistically significantly different from the control

## human beta defensin 2 (GIGDPVTCLKSGAICHPVFCPRRYKQIGTCGLPGTKCCKKP; not fully specified (bridges); ends and bridges not checked; listed as Homo sapiens) [hBD2]
[1]; HFD plus hBD2 (1,2 mg per kg per day) versus HFD reference group, 10 week study period
  weight gain: gained significantly less weight
[1]; [6]
  abundance of Barnesiella: statistically significant increase in abundance of Barnesiella
  abundance of Lactobacillaceae: trend towards lower abundance
[1]; liver, HFD mice with prophylactic oral hBD-2 1.2 mg/kg daily, 1.2 mg/kg
  steatosis (intra hepatocytic fat accumulation): minimal intra hepatocyte fat accumulation; also recorded: minimal steatosis
[1]; prophylactic oral defensins in high fat diet
  microbial presence and abundance (unifrac analysis): affected primarily the microbial presence
[2]
  IL-4 level in lung tissue homogenates: significant effects
  IL-5 level in lung tissue homogenates: significant effects
[3]; [7]
  airway resistance: effectively inhibited the increase of airway resistance
  pulmonary compliance: effectively inhibited
[3]; [8]
  IL-4 in lung tissue homogenates: trend towards lowering
  IL-5 in lung tissue homogenates: trend towards lowering
  IL-6 in lung tissue homogenates: trend towards lowering
  IL-9 in lung tissue homogenates: trend towards lowering
  IL-13 in lung tissue homogenates: trend towards lowering
  TNF-α in lung tissue homogenates: trend towards lowering
[3]; oral administration
  IL-4 concentration in lung tissue homogenates: complete normalization of cytokine concentrations
  IL-6 concentration in lung tissue homogenates: complete normalization of cytokine concentrations
  IL-9 concentration in lung tissue homogenates: complete normalization of cytokine concentrations
  IL-13 concentration in lung tissue homogenates: complete normalization of cytokine concentrations
  L-5 (31c) concentration in lung tissue homogenates: complete normalization of cytokine concentrations
  TNF-α concentration in lung tissue homogenates: complete normalization of cytokine concentrations
[3]; oral application
  neutrophil counts in BALF: significantly inhibited neutrophil counts
[4]; HFD plus hBD2, first 4 weeks post dietary intervention, versus standard HFD
  weight gain: tended to gain less weight
[4]; HFD plus hBD2, week 4 to end of study period
  weight gain: gained similar weight as the standard HFD group
[4]; colon
  abundance of Alloprevotella: no influence on Alloprevotella abundance
  relative abundance of Bifidobacteriaceae: dramatically and statistically significant increased
[4]; small intestine
  relative abundance of Bifidobacteriaceae: dramatically and statistically significant increased
[5]; FIG. 13, 0.03 and 0.1 mg/kg hBD2 (Group E and F), on par with prednisolone 10 mg/kg
  histological score: statistical significant effect
[5]; Prednisolone 10 mg/kg s.c. once daily, hBD2 at 0.1, 0.3 and 1 mg/kg s.c. once daily
  histological score: highly statistically significant clinical effect on histological score
[5]; hBD2 0.03 and 0.1 mg/kg OD s.c.
  body weight: highly statistically significant increase in body weight
